Assay results: patent US20240366809A1, “INHIBITOR OF PROSTATE SPECIFIC MEMBRANE ANTIGEN AND PHARMACEUTICAL USE THEREOF” (TIANJIN HENGRUI MEDICINE CO., LTD., priority 2021, published 2024)

Test system: human organs
Test: Absorbed doses of radiation, estimates for human organs (OLINDA software)
Conditions: for radiation dose estimate, Adrenals: human organ: Adrenals; for radiation dose estimate, Brain: human organ: Brain; for radiation dose estimate, Esophagus: human organ: Esophagus; for radiation dose estimate, Eyes: human organ: Eyes; for radiation dose estimate, Gallbladder Wall: human organ: Gallbladder Wall; for radiation dose estimate, Heart Wall: human organ: Heart Wall; for radiation dose estimate, Kidneys: human organ: Kidneys; for radiation dose estimate, Left colon: human organ: Left colon; for radiation dose estimate, Liver: human organ: Liver; for radiation dose estimate, Lungs: human organ: Lungs; for radiation dose estimate, Osteogenic Cells: human organ: Osteogenic Cells; for radiation dose estimate, Pancreas: human organ: Pancreas; for radiation dose estimate, Prostate: human organ: Prostate; for radiation dose estimate, Rectum: human organ: Rectum; for radiation dose estimate, Red Marrow: human organ: Red Marrow; for radiation dose estimate, Right colon: human organ: Right colon; for radiation dose estimate, Salivary Glands: human organ: Salivary Glands; for radiation dose estimate, Small Intestine: human organ: Small Intestine; for radiation dose estimate, Spleen: human organ: Spleen; for radiation dose estimate, Stomach Wall: human organ: Stomach Wall; for radiation dose estimate, Testes: human organ: Testes; for radiation dose estimate, Thymus: human organ: Thymus; for radiation dose estimate, Thyroid: human organ: Thyroid; for radiation dose estimate, Urinary Bladder Wall: human organ: Urinary Bladder Wall; for radiation dose estimate, Effective Dose: human: Effective Dose; for radiation dose estimate, Total Body: human: Total Body
Protocol: The AUC of drug metabolisms was calculated from the biodistribution (Bio-D) data and imported into the OLINDA software to generate doses of radiation absorbed by all the organs.

## O=C([O-])CN1CCN(CC(=O)[O-])CCN(CC(=O)NCC2CCC(C(=O)N[C@@H](Cc3ccc4ccccc4c3)C(=O)NCCCC[C@H](NC(=O)N[C@@H](CCC(=O)O)C(=O)O)C(=O)O)CC2)CCN(CC(=O)[O-])CC1.[177Lu+3] (some centres unmarked) [^177Lu-PSMA-617, reference compound]
  radiation dose estimate, Adrenals: 2.43E−02 mSv/MBq
  radiation dose estimate, Brain: 1.38E−01 mSv/MBq
  radiation dose estimate, Esophagus: 3.39E−03 mSv/MBq
  radiation dose estimate, Eyes: 2.74E−03 mSv/MBq
  radiation dose estimate, Gallbladder Wall: 3.58E−03 mSv/MBq
  radiation dose estimate, Heart Wall: 2.41E−02 mSv/MBq
  radiation dose estimate, Kidneys: 1.47E+00 mSv/MBq
  radiation dose estimate, Left colon: 4.60E−03 mSv/MBq
  radiation dose estimate, Liver: 3.15E−02 mSv/MBq
  radiation dose estimate, Lungs: 1.12E−01 mSv/MBq
  radiation dose estimate, Osteogenic Cells: 5.58E−01 mSv/MBq
  radiation dose estimate, Pancreas: 4.36E−03 mSv/MBq
  radiation dose estimate, Prostate: 1.23E−03 mSv/MBq
  radiation dose estimate, Rectum: 1.49E−03 mSv/MBq
  radiation dose estimate, Red Marrow: 3.80E−03 mSv/MBq
  radiation dose estimate, Right colon: 2.74E−03 mSv/MBq
  radiation dose estimate, Salivary Glands: 2.18E−03 mSv/MBq
  radiation dose estimate, Small Intestine: 4.48E−02 mSv/MBq
  radiation dose estimate, Spleen: 9.86E−01 mSv/MBq
  radiation dose estimate, Stomach Wall: 8.22E−03 mSv/MBq
  radiation dose estimate, Testes: 5.04E−04 mSv/MBq
  radiation dose estimate, Thymus: 2.04E−03 mSv/MBq
  radiation dose estimate, Thyroid: 1.83E−03 mSv/MBq
  radiation dose estimate, Urinary Bladder Wall: 7.53E−04 mSv/MBq
  radiation dose estimate, Effective Dose: 4.74E−02 mSv/MBq
  radiation dose estimate, Total Body: 2.91E−02 mSv/MBq

## O=C([O-])CN1CCN(CC(=O)[O-])CCN(CC(=O)N2CCO[C@]3(CC[C@H](C(=O)N[C@@H](Cc4ccc5ccccc5c4)C(=O)NCCCC[C@H](NC(=O)N[C@@H](CCC(=O)O)C(=O)O)C(=O)O)CC3)C2)CCN(CC(=O)[O-])CC1.[177Lu+3] [^177Lu-v]
From Table 5
  absorbed dose of radiation, comparison with the labeled PSMA-617 in words: smaller than that resulting from ^177Lu-PSMA-617
  radiation dose estimate, Adrenals: 1.74E−02 mSv/MBq
  radiation dose estimate, Brain: 6.03E−02 mSv/MBq
  radiation dose estimate, Esophagus: 4.33E−03 mSv/MBq
  radiation dose estimate, Eyes: 2.21E−03 mSv/MBq
  radiation dose estimate, Gallbladder Wall: 4.67E−03 mSv/MBq
  radiation dose estimate, Heart Wall: 2.72E−02 mSv/MBq
  radiation dose estimate, Kidneys: 8.83E−01 mSv/MBq
  radiation dose estimate, Left colon: 4.81E−03 mSv/MBq
  radiation dose estimate, Liver: 7.43E−02 mSv/MBq
  radiation dose estimate, Lungs: 1.95E−01 mSv/MBq
  radiation dose estimate, Osteogenic Cells: 6.52E−01 mSv/MBq
  radiation dose estimate, Pancreas: 5.14E−03 mSv/MBq
  radiation dose estimate, Prostate: 1.29E−03 mSv/MBq
  radiation dose estimate, Rectum: 1.91E−03 mSv/MBq
  radiation dose estimate, Red Marrow: 4.16E−03 mSv/MBq
  radiation dose estimate, Right colon: 3.03E−03 mSv/MBq
  radiation dose estimate, Salivary Glands: 1.67E−03 mSv/MBq
  radiation dose estimate, Small Intestine: 1.73E−01 mSv/MBq
  radiation dose estimate, Spleen: 6.84E−01 mSv/MBq
  radiation dose estimate, Stomach Wall: 2.73E−02 mSv/MBq
  radiation dose estimate, Testes: 5.84E−04 mSv/MBq
  radiation dose estimate, Thymus: 2.83E−03 mSv/MBq
  radiation dose estimate, Thyroid: 2.41E−03 mSv/MBq
  radiation dose estimate, Urinary Bladder Wall: 9.14E−04 mSv/MBq
  radiation dose estimate, Effective Dose: 5.46E−02 mSv/MBq
  radiation dose estimate, Total Body: 3.07E−02 mSv/MBq
